# Publication PMC8408929, “Influence of osmolality on gastrointestinal fluid volume and drug absorption: potential impact on oral salt supplementation” (Journal of Pharmaceutical Health Care and Sciences, 2021)
# Tests used:
# [1] = system: intestine; set-up: method as in PMID 28450238; conditions: administered in purified water vs isosmotic solution; cited from earlier work
# [2] = set-up: method as in not given; conditions: low-permeability drugs; ref not given; cited from earlier work
# [3] = system: rat intestine (jejunum, ileum and colon); assay: in situ rat intestinal closed loop method; conditions: 30 min
# Method: The in situ rat intestinal closed loop method was carried out as described previously. Male Wistar rats (7–8 weeks old; 250 ± 20 g body weight) were fasted overnight and anesthetized by intraperitoneal injection of a triple anesthetic combination (medetomidine, midazolam and butorphanol). The abdominal cavity was opened and an intestinal loop (jejunum, 10 cm; ileum, 10 cm; colon, 7 cm) was made by cannulation into both ends of the jejunum, ileum and colon with silicone tubing (i.d., 3 mm). The intestinal contents were washed out through the cannulas with saline. […] One mL of test compound solution (10 μM) was introduced into the intestinal loop and both ends of the loop were ligated. At the designated times (30 min), test compound solution in the loop was collected by flushing with air (for measuring the luminal concentration of test compound, Cout), and then made up to 10 mL with buffer solution (for measuring the amount of test compound, Xout). The volume of luminal water (mL) in each segment of intestine was calculated using the following equation: 1 Vwater=Xout/Cout where Vwater (mL) is the water volume in each segment of intestine, Cout is the luminal concentration of test compound (μM), and Xout is the amount of test compound (μmol). The fraction absorbed of test compound was calculated from the remaining amount of test compound in each intestinal loop. Final results were normalized to the surface area calculated from the radius and length of each segment of intestine. The radii of the small and large intestines reported by Fagerholm et al. were used (0.178 cm and 0.252 cm, respectively).
# Concentrations of FD-4 were measured with a microplate fluorescence reader (VarioskanTM Flash 2.4; Thermo Fisher Scientific Inc., Kanagawa, Japan) at excitation/emission wavelengths of 492/515 nm.
# An Agilent Eclitse plus (C18, 50 × 2.1 mm, 5 μm) was used as the analytical column. […] Analyst software version 1.4.2 (AB SCIEX) was used for data manipulation.
compound,measurement,setting,value
Cc1cc(=O)n(-c2ccccc2)n1C [antipyrine],"fraction absorbed, purified water compared with isosmotic solution",[1],no significant difference
CC(C)NCC(O)COc1ccc(CC(N)=O)cc1 (stereo not shown) [atenolol],"fraction absorbed, purified water compared with isosmotic solution",[1],significantly greater
NS(=O)(=O)c1cc(C(=O)O)c(NCc2ccco2)cc1Cl [furosemide],BCS Class,[2],Class IV
Cc1ccccc1C(=O)Nc1ccc(C(=O)N2CCCC(O)c3cc(Cl)ccc32)c(C)c1 (stereo not shown) [tolvaptan],BCS Class,[2],Class IV
fluorescein isothiocyanate-dextran 4000 [FD-4],luminal concentration,"[3]; colon, 10 μM dosed in hyperosmotic solution (10% NaCl)",6.25 ± 0.15 µM
same,luminal concentration,"[3]; colon, 10 μM dosed in purified water",27.4 ± 2.0 µM
same,luminal concentration,"[3]; ileum, 10 μM dosed in hyperosmotic solution (10% NaCl)",6.47 ± 0.68 µM
same,luminal concentration,"[3]; ileum, 10 μM dosed in purified water",13.2 ± 0.7 µM
same,luminal concentration,"[3]; jejunum, 10 μM dosed in hyperosmotic solution (10% NaCl)",5.30 ± 0.31 µM
same,luminal concentration,"[3]; jejunum, 10 μM dosed in purified water",13.7 ± 0.8 µM
